From PubChem BioAssay (NCI)
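These data come from cells grown in 96-well plates and exposed to compound for 48 hours at five concentrations. GI50 is the concentration that inhibits growth by half. TGI denotes the concentration required for complete inhibition of growth.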

Columns and labels:
Assay in all cases: NCI tumour cell line growth inhibition, 48 h
LXFL 529 NSCLC = test system: LXFL 529 NSCLC
DMS 114 small cell lung = test system: DMS 114 small cell lung
P388 leukemia = test system: P388 leukemia
P388/ADR leukemia = test system: P388/ADR leukemia
SN12K1 renal = test system: SN12K1 renal

Row | Structure (SMILES) | TGI (LXFL 529 NSCLC) [µM] | TGI (DMS 114 small cell lung) [µM] | GI50 (DMS 114 small cell lung) [µM] | TGI (P388 leukemia) [µM] | TGI (P388/ADR leukemia) [µM] | TGI (SN12K1 renal) [µM]
1 | CCNc1nc2c(=O)n(C)c(=O)n(C)c2s1 | > 100 |  |  |  |  | 
2 | Cc1ccc(NCCO)cc1 | > 100 | > 100 |  |  |  | 
3 | Nc1c2ccccc2nc2nccnc12 |  | > 100 |  |  |  | 
4 | COc1ccc(/C=C2\C(=O)Nc3ccccc32)cc1OC | > 100 |  |  |  |  | 
5 | CNc1cccc(-c2cc(=O)c3cc4c(cc3[nH]2)OCO4)c1 | > 100 | 7.84 |  |  |  | 
6 | COc1ccc(-c2cc(=O)c3cc4c(cc3[nH]2)OCO4)c(OC)c1 | > 100 | 87.3 | 26.1 |  |  | 
7 | ClCc1nnc2n1-c1ccc(Cl)cc1SC2 |  | 9.58 |  | 4.24 | > 25.2 | 7.86
8 | O=C(NC/C=C/CO)c1ccccc1 |  | > 100 |  | > 100 | > 100 | > 100
9 | O=C1CCN(CCC(F)(F)C(F)(F)C(F)(F)C(F)(F)F)C(=S)N1 | > 100 | > 100 |  |  |  | 
10 | Cc1ccc2[nH]c3c(C)c4cc[n+](C)cc4c(C)c3c2c1 | 5.01 | 2.73 |  |  |  | 
11 | CC12CCC3C(CCC4(O)C=CCCC34C=O)C1(O)CC(O)C2c1ccc(=O)oc1 (configuration not stated) |  |  |  | 500 | > 500 | 0.108
12 | CC1OC(n2ccc3ccc([N+](=O)[O-])cc32)C(O)C(O)C1O (configuration not stated) | > 100 | > 100 |  |  |  | 
13 | N#CC(NNC(=O)Cc1ccccc1)c1ccc(O)cc1 (configuration not stated) | > 100 | > 100 |  |  |  | 
14 | Nc1ccc(N=Nc2ccc(-c3ccc(N=Nc4c(S(=O)(=O)O)cc5cc(S(=O)(=O)O)c(N=Nc6ccc([N+](=O)[O-])cc6)c(N)c5c4O)cc3)cc2)c2cc(S(=O)(=O)O)ccc12 | > 100 |  |  |  |  | 
15 | Cc1cc2c(=O)c3ccc(Cl)cc3[nH]c2c(C(=O)O)c1C | > 100 | > 100 |  |  |  | 
